Measured values from patent publication US20240209028A1, “CNP COMPOUNDS” (priority 2022, published 2024).
Starred links: 1 amine or outer side, 2 acyl side, 3 side chain; linkers in the order of their positions; H or OH if unused. Positions of bridges follow the written chain, without caps; N, C: chain ends. Residues, ends and D or L forms follow the SMILES beside them. *: point of attachment. C18 diacid = O=C(O)CCCCCCCCCCCCCCCCC(=O)*; γGlu = O=C(O)[C@H](CCC(=O)[*:2])N[*:1]; AEEA = NCCOCCOCC(=O)O

Legend:
[1] = CNP local tolerance study in LYD pigs (s.c. injection, histopathology); type: in vivo, domestic LYD pig; conditions: for assessment for human subcutaneous administration: based on pig local tolerance
Outline: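 Domestic pigs dosed s.c. mid-back, 100 or 200 μl at approx. 4400 μM, in phosphate pH 6.5 or acetate pH 4.0 buffers with glycerol or propylene glycol; saline as negative control. Sites excised 4 or 5 days post injection, H&E sections graded on 5-level scale; necrosis used as marker.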

[2] = Thioflavin T (ThT) assay: lagtime and peptide recovery; type: physicochemical; conditions: assay terminated after 45 hours; for LagTime (h) at pH 6.5: ThT assay, pH 6.5, 37° C.
Outline: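 ThT (final about 1 μM) was added to peptide supernatants at pH 4.0 and 6.5 and incubated at 37 °C with orbital shaking for 45 h. Fluorescence (ex 444/em 485 nm) was read every 20 min, and lag-time was taken as the time to onset of signal rise. Recovery is the RP-UPLC (215 nm) total peak area after vs. before incubation.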

mouse metatarsal bones = test: Mouse metatarsal bone dissection and culture (ex vivo bone growth); type: cell-based, mouse (NMRI); conditions: 100 nM, n=8
Experimental: The purpose of this study was to evaluate bone growth after administration of CNP compounds in an ex vivo mouse model.
Procedure: One-day old mouse pups (NMRI, Javier Labs France) were euthanised prior to dissection. All applicable international and internal Novo Nordisk guidelines for care and use of animals were followed. The three middle metatarsal bones were dissected out from each hind paw. The dissected bones were placed in 24-well cell culture plates and cultured in 400 μl a-Minimum Essential Media supplemented with 0.2% BSA, 1% Pen/Strep at 37° C. and 5% CO2. The bones from all animals were randomised into a control group and six CNP compound-treated groups (100 nM; n=8). The medium was changed every 2-3 days. All compounds were formulated according to the principles described in General Methods of Preparation—Method G. Compounds 9435 and 9483 were formulated in A) 5 mM sodium acetate, 250 mM glycerol, pH 4.0 while compounds 9384, 9407, 9480 and 9482 were formulated in B) 8 mM sodium phosphate, 250 mM glycerol, pH 7.4.
Digital pictures were captured on day 0, 4, 7, 11, and 14 using a digital camera attached to a Nikon microscope. The length of each metatarsal bone was measured using ImageJ software and increase in bone length was expressed as percentage change from the length measured at the day of dissection (Mean (SD)).
In Table 27, metatarsal bones were isolated from mice and cultured for up to 14 days. Length was measured every 3-4 days throughout the study and expressed as percentage change from day 0 (Mean (SD)). Statistically significant differences are indicated compared to control group (two-way ANOVA).

[3] = 5 days after subcutaneous injections in the pig

| Structure (SMILES) | local subcutaneous necrosis ([1]; pig, in vivo, sc) | LagTime (h) at pH 6.5 [2] | local subcutaneous necrosis [1, 3] | assessment for human subcutaneous administration [1] | Increase in bone length, mean (%) change from day 0 (mouse metatarsal bones; day 4 in culture) | Increase in bone length, mean (%) change from day 0 (mouse metatarsal bones; day 7 in culture) | Increase in bone length, mean (%) change from day 0 (mouse metatarsal bones; day 11 in culture) | Increase in bone length, mean (%) change from day 0 (mouse metatarsal bones; day 14 in culture) | LagTime (h) at pH 4.0 ([2]; ThT, 37° C., shaking) |
| --- | --- | --- | --- | --- | --- | --- | --- | --- | --- |
| CC[C@H](C)[C@@H]1NC(=O)[C@H](CCCNC(=N)N)NC(=O)[C@H](CCC(=O)O)NC(=O)[C@H](CC(C)C)NC(=O)[C@H](CCCCN)NC(=O)[C@H](CC(C)C)NC(=O)CNC(=O)[C@H](Cc2ccccc2)NC(=O)[C@@H](NC(=O)CNC(=O)[C@H](CCCCN)NC(=O)[C@H](CO)NC(=O)[C@H](CC(C)C)NC(=O)CNC(=O)[C@H](CCCCN)NC(=O)[C@H](CCCCN)NC(=O)[C@H](CCC(N)=O)NC(=O)[C@H](C)NC(=O)CNC(=O)[C@H](CCCCN)NC(=O)[C@H](Cc2ccc(O)cc2)NC(=O)[C@H](CCCCN)NC(=O)[C@H](CCCNC(=N)N)NC(=O)[C@H](C)NC(=O)COCCOCCNC(=O)COCCOCCNC(=O)CC[C@H](NC(=O)CCCCCCCCCCCCCCCCC(=O)O)C(=O)O)CSSC[C@@H](C(=O)O)NC(=O)CNC(=O)[C@H](CC(C)C)NC(=O)CNC(=O)[C@H](CO)NC(=O)[C@H](CC(C)C)NC(=O)[C@H](CO)NC(=O)CNC1=O [compound 0776] ({C18 diacid-γGlu-AEEA-AEEA}-ARKYKGAQKKGLSKGCFGLKLERIGSLSGLGC-OH; disulfide 16-32) | moderate to marked | – | – | – | – | – | – | – | – |
| CC[C@H](C)[C@@H]1NC(=O)[C@H](CCCNC(=N)N)NC(=O)[C@H](CC(=O)O)NC(=O)[C@H](CC(C)C)NC(=O)[C@H](CCCCN)NC(=O)[C@H](CC(C)C)NC(=O)CNC(=O)[C@H](Cc2ccccc2)NC(=O)[C@@H](NC(=O)CNC(=O)[C@H](CCCCN)NC(=O)[C@H](CO)NC(=O)[C@H](CC(C)C)NC(=O)CNC(=O)[C@H](CCCCN)NC(=O)[C@H](CCCCN)NC(=O)[C@H](CCC(N)=O)NC(=O)[C@H](C)NC(=O)CNC(=O)[C@H](Cc2c[nH]cn2)NC(=O)[C@H](CCC(=O)O)NC(=O)COCCOCCNC(=O)COCCOCCNC(=O)CC[C@H](NC(=O)CCCCCCCCCCCCCCCCC(=O)O)C(=O)O)CSSC[C@@H](C(=O)O)NC(=O)CNC(=O)[C@H](CC(C)C)NC(=O)CNC(=O)[C@H](CO)NC(=O)[C@H](CC(C)C)NC(=O)[C@H](CO)NC(=O)CNC1=O [compound 1235] | minimal to mild | – | – | – | – | – | – | – | – |
| CC[C@H](C)[C@@H]1NC(=O)[C@H](CCCNC(=N)N)NC(=O)[C@H](CC(=O)O)NC(=O)[C@H](CC(C)C)NC(=O)[C@@H]2CCCN2C(=O)[C@H](CC(C)C)NC(=O)CNC(=O)[C@H](Cc2ccccc2)NC(=O)[C@@H](NC(=O)CNC(=O)[C@H](CCC(N)=O)NC(=O)[C@H](CO)NC(=O)[C@H](CO)NC(=O)CNC(=O)[C@H](CCCCN)NC(=O)[C@H](CCCCN)NC(=O)[C@H](CCC(N)=O)NC(=O)[C@H](C)NC(=O)CNC(=O)[C@@H]2CCCN2C(=O)[C@H](C)NC(=O)[C@H](CCC(N)=O)NC(=O)CNC(=O)COCCOCCNC(=O)COCCOCCNC(=O)CC[C@H](NC(=O)CCCCCCCCCCCCCCCCC(=O)O)C(=O)O)CSSC[C@@H](C(=O)O)NC(=O)CNC(=O)[C@H](CC(C)C)NC(=O)CNC(=O)[C@H](CO)NC(=O)[C@H](CC(C)C)NC(=O)[C@H](CO)NC(=O)CNC1=O [compound 9384] ({C18 diacid-γGlu-AEEA-AEEA}-GQAPGAQKKGSSQGCFGLPLDRIGSLSGLGC-OH; disulfide 15-31; C-terminus assumed) | – | 45 h | no to minimal | acceptable | 33.6% | 42.6% | 50.1% | 54.4% | – |
| CC[C@H](C)[C@@H]1NC(=O)[C@H](CCCNC(=N)N)NC(=O)[C@H](CC(=O)O)NC(=O)[C@H](CC(C)C)NC(=O)[C@@H]2CCCN2C(=O)[C@H](CC(C)C)NC(=O)CNC(=O)[C@H](Cc2ccccc2)NC(=O)[C@@H](NC(=O)CNC(=O)[C@H](CCC(N)=O)NC(=O)[C@H](CO)NC(=O)[C@H](CC(C)C)NC(=O)CNC(=O)[C@H](CCCCN)NC(=O)[C@H](CCCCN)NC(=O)[C@H](CCC(N)=O)NC(=O)[C@H](C)NC(=O)CNC(=O)[C@H](CCCCN)NC(=O)[C@H](Cc2ccc(O)cc2)NC(=O)[C@H](CCCCN)NC(=O)[C@H](CCCNC(=N)N)NC(=O)[C@H](C)NC(=O)COCCOCCNC(=O)COCCOCCNC(=O)COCCOCCNC(=O)COCCOCCNC(=O)CC[C@H](NC(=O)CC[C@H](NC(=O)CC[C@H](NC(=O)CC[C@H](NC(=O)CC[C@H](NC(=O)CCCCCCCCCCCCCCCCC(=O)O)C(=O)O)C(=O)O)C(=O)O)C(=O)O)C(=O)O)CSSC[C@@H](C(=O)O)NC(=O)CNC(=O)[C@H](CC(C)C)NC(=O)CNC(=O)[C@H](CO)NC(=O)[C@H](CC(C)C)NC(=O)[C@H](CO)NC(=O)CNC1=O [compound 9407] ({C18 diacid-γGlu-γGlu-γGlu-γGlu-γGlu-AEEA-AEEA-AEEA-AEEA}-ARKYKGAQKKGLSQGCFGLPLDRIGSLSGLGC-OH; disulfide 16-32) | – | 45 h | no to minimal | acceptable | 35.1% | 45.4% | 53.2% | 55.8% | – |
| CC[C@H](C)[C@@H]1NC(=O)[C@H](CCCNC(=N)N)NC(=O)[C@H](CC(=O)O)NC(=O)[C@H](CC(C)C)NC(=O)[C@@H]2CCCN2C(=O)[C@H](CC(C)C)NC(=O)CNC(=O)[C@H](Cc2ccccc2)NC(=O)[C@@H](NC(=O)CNC(=O)[C@H](CCC(N)=O)NC(=O)[C@H](CO)NC(=O)CNC(=O)CNC(=O)[C@H](CCCCN)NC(=O)[C@H](CCCCN)NC(=O)[C@H](CCC(N)=O)NC(=O)[C@H](C)NC(=O)CNC(=O)[C@H](CCCCN)NC(=O)[C@H](Cc2ccc(O)cc2)NC(=O)COCCOCCNC(=O)COCCOCCNC(=O)COCCOCCNC(=O)COCCOCCNC(=O)CC[C@H](NC(=O)CC[C@H](NC(=O)CCCCCCCCCCCCCCCCC(=O)O)C(=O)O)C(=O)O)CSSC[C@@H](C(=O)O)NC(=O)CNC(=O)[C@H](CC(C)C)NC(=O)CNC(=O)[C@H](CO)NC(=O)[C@H](CC(C)C)NC(=O)[C@H](CO)NC(=O)CNC1=O [compound 9435] ({C18 diacid-γGlu-γGlu-AEEA-AEEA-AEEA-AEEA}-YKGAQKKGGSQGCFGLPLDRIGSLSGLGC-OH; disulfide 13-29; C-terminus assumed) | – | 45 h | minimal to mild | acceptable | 36.2% | 47.3% | 53.9% | 59.2% | 45 h |
| CC[C@H](C)[C@@H]1NC(=O)[C@H](CCCNC(=N)N)NC(=O)[C@H](CC(=O)O)NC(=O)[C@H](CC(C)C)NC(=O)[C@@H]2CCCN2C(=O)[C@H](CC(C)C)NC(=O)CNC(=O)[C@H](Cc2ccccc2)NC(=O)[C@@H](NC(=O)CNC(=O)[C@H](CCC(N)=O)NC(=O)[C@H](CO)NC(=O)[C@H](CC(C)C)NC(=O)CNC(=O)[C@H](CCCCN)NC(=O)[C@H](CCCCN)NC(=O)[C@H](CCC(N)=O)NC(=O)[C@H](C)NC(=O)CNC(=O)[C@H](CCCCN)NC(=O)[C@H](Cc2ccc(O)cc2)NC(=O)COCCOCCNC(=O)COCCOCCNC(=O)COCCOCCNC(=O)COCCOCCNC(=O)CC[C@H](NC(=O)CC[C@H](NC(=O)CC[C@H](NC(=O)CCCCCCCCCCCCCCCCC(=O)O)C(=O)O)C(=O)O)C(=O)O)CSSC[C@@H](C(=O)O)NC(=O)CNC(=O)[C@H](CC(C)C)NC(=O)CNC(=O)[C@H](CO)NC(=O)[C@H](CC(C)C)NC(=O)[C@H](CO)NC(=O)CNC1=O [compound 9480] ({C18 diacid-γGlu-γGlu-γGlu-AEEA-AEEA-AEEA-AEEA}-YKGAQKKGLSQGCFGLPLDRIGSLSGLGC-OH; disulfide 13-29) | – | 45 h | no | acceptable | 33.1% | 43.9% | 49.2% | 52.1% | – |
